Results reported in US20070129252A1, “2-Halo-6-alkylphenyl-substituted spirocyclic tetramic acid derivatives” (BAYER CROPSCIENCE AKTIENGESELLSCHAFT, priority 2003, published 2007).

Key:
Assay type in all cases: in vivo
Lolium [1] = experiment: Herbicidal post-emergence action (Example M); settings: greenhouse, 320 g of a.i./ha, about 3 weeks
Method: (§1) Herbicidal Post-Emergence Action
(§2) Seeds of monocotyledonous and dicotyledonous weed and crop plants are placed into sandy loam in wood fibre pots, covered with soil and cultivated in a greenhouse under good growth conditions. 2-3 weeks after sowing, the test plants are treated at the one-leaf stage. The test compounds, formulated as wettable powders (WP), are, in various dosages with a water application rate of 600 l/ha (converted), with 0.2% of wetting agent added, sprayed onto the green parts of the plants. After the test plants were kept in the greenhouse under optimum growth conditions for about 3 weeks, the effect of the preparations is rated visually in comparison to untreated controls (herbicidal effect in percent (%): 100% effect=the plants have died, 0% effect=like control plants).

Setaria [2] = experiment: Herbicidal post-emergence action (Example M); settings: greenhouse, 320 g of a.i./ha, about 3 weeks
Method: as §1, §2

Sinapis [3] = experiment: Herbicidal post-emergence action (Example M); settings: greenhouse, 320 g of a.i./ha, about 3 weeks
Method: as §1, §2

Avena sativa = experiment: Herbicidal post-emergence action (Example M); settings: greenhouse, 320 g of a.i./ha, about 3 weeks
Method: as §1, §2

Lolium [4] = experiment: Herbicidal pre-emergence action (Example L); settings: greenhouse, 320 g of a.i./ha, 3 weeks
Description: (§3) Herbicidal Pre-Emergence Action
(§4) Seeds of monocotyledonous and dicotyledonous weed and crop plants are placed into sandy loam in wood fibre pots and covered with soil. The test compounds, formulated in the form of wettable powders (WP), are then, in various dosages as aqueous suspension with a water application rate of 600 l/ha (converted), with 0.2% of wetting agent added, applied to the surface of the covering soil.
(§5) After the treatment, the pots are placed in a greenhouse and kept under good growth conditions for the test plants. The visual assessment of the emergence damage on the test plants is carried out after a trial period of 3 weeks by comparison with untreated controls (herbicidal effect in percent (%): 100% effect=the plants have died, 0% effect=like control plants).

Setaria [5] = experiment: Herbicidal pre-emergence action (Example L); settings: greenhouse, 320 g of a.i./ha, 3 weeks
Description: as §3, §4, §5

Amaranthus = experiment: Herbicidal pre-emergence action (Example L); settings: greenhouse, 320 g of a.i./ha, 3 weeks
Description: as §3, §4, §5

Myzus persicae = experiment: Myzus test (spray treatment); settings: 100 g/ha, Chinese cabbage discs
Method: Myzus Test (Spray Treatment)
(§6) To produce a suitable preparation of active compound, 1 part by weight of active compound is mixed with the stated amounts of solvent and emulsifier, and the concentrate is diluted with emulsifier-containing water to the desired concentration.
Discs of Chinese cabbage (Brassica pekinensis), which are infested by all stages of the green peach aphid (Myzus persicae), are sprayed with a preparation of active compound of the desired concentration.
After the desired period of time, the effect in % is determined. 100% means that all aphids have been killed; 0% means that none of the aphids have been killed.

Tetranychus urticae [6] = experiment: Tetranychus test (OP-resistant/spray treatment); settings: 100 g/ha; spray treatment; bean leaf discs
Method: Tetranychus Test (OP-Resistant/Spray Treatment)
To produce a suitable preparation of active compound, 1 part by weight of active compound is mixed with the stated amounts of solvents and emulsifier, and the concentrate is diluted with emulsifier-containing water to the desired concentration.
Discs of bean leaves (Phaseolus vulgaris) which are infested by all stages of the greenhouse red spider mite (Tetranychus urticae) are sprayed with a preparation of active compound of the desired concentration.
(§7) After the desired period of time, the activity in % is determined. 100% means that all spider mites have been killed; 0% means that none of the spider mites have been killed.

Stellaria = experiment: Herbicidal pre-emergence action (Example L); settings: greenhouse, 320 g of a.i./ha, 3 weeks
Description: as §3, §4, §5

Sinapis [7] = experiment: Herbicidal pre-emergence action (Example L); settings: greenhouse, 320 g of a.i./ha, 3 weeks
Description: as §3, §4, §5

summer barley = experiment: Herbicidal post-emergence action, vessel trials with cereals in the greenhouse, use of safeners (Example N); settings: without safener
Method: as §1
(§8) Seeds of monocotyledonous and dicotyledonous weed and crop plants are placed into sandy loam in wood fibre pots or in plastic pots, covered with soil and cultivated in a greenhouse, during the vegetation period also outdoors outside of the greenhouse, under good growth conditions. 2-3 weeks after sowing, the test plants are treated at the one- to three-leaf stage. The test compounds, formulated as wettable powders (WP) or emulsifiable concentrates (EC) are, in various dosages with a water application rate of 300 l/ha (converted), with wetting agent (0.2 to 0.3%) added, sprayed onto the plants and the surface of the soil. 3-4 weeks after the treatment of the test plants, the effect of the preparations is rated visually in comparison to untreated controls (herbicidal effect in percent (%): 100% effect=the plants have died, 0% effect=like control plants).
(§9) If it is additionally to be tested as to whether safeners can improve the plant compatibility of test substances in the case of crop plants, the following options are used for applying the safener: • seeds of the crop plants are, before sowing, dressed with the safener substance (the amount of safener is stated in percent, based on the weight of the seed) • before the application of the test substances, the crop plants are sprayed with the safener at a certain application rate per hectare (usually 1 day before the application of the test substances) • the safener is applied together with the test substance as a tank mix (the amount of safener is stated in g/ha or as a ratio, based on the herbicide).
(§10) By comparing the effect of the test substances on crop plants without or with safener treatment, it is possible to assess the effect of the safener substance.
(§11) Vessel Trials with Cereals in the Greenhouse
(§12) Mefenpyr applied 1 day prior to the application of herbicide

summer wheat = experiment: as above; settings: without safener
Method: as §1, §8, §9, §10, §11, §12

Phaedon cochleariae = experiment: Phaedon test (spray treatment); settings: 100 g/ha, Chinese cabbage discs
Method: Phaedon Test (Spray Treatment) [table] To produce a suitable preparation of active compound, 1 part by weight of active compound is mixed with the stated amounts of solvents and emulsifier, and the concentrate is diluted with emulsifier-containing water to the desired concentration. Discs of Chinese cabbage (Brassica pekinensis) are sprayed with a preparation of active compound of the desired concentration and, after they have dried, populated with larvae of the mustard beetle (Phaedon cochleariae).

Tetranychus urticae [8] = experiment: Tetranychus test (OP-resistant/dip treatment); settings: 4 ppm; dip treatment; bean plants (Table B)
Method: Tetranychus Test (OP-Resistant/Dip Treatment)
as §6
Bean plants (Phaseolus vulgaris), which are heavily infested by all stages of the greenhouse red spider mite (Tetranychus urticae), are dipped into a preparation of active compound of the desired concentration.
as §7

CCOC(=O)OC1=C(c2c(Br)cc(C)cc2CC)C(=O)NC12CCC(OC)CC2 (single isomer, unassigned) [I-c-3]
herbicidal effect in percent, Lolium (Lolium [1]): 100% | herbicidal effect in percent, Setaria (Setaria [2]): 100% | herbicidal effect in percent, Sinapis (Sinapis [3]): 70% | herbicidal effect in percent, Avena sativa (Avena sativa): 100% | herbicidal effect in percent, Lolium (Lolium [4]): 100% | herbicidal effect in percent, Setaria (Setaria [5]): 100% | herbicidal effect in percent, Amaranthus (Amaranthus): 100% | Kill rate in % after 5d (Myzus persicae): 80% | Kill rate in % after 5d (Tetranychus urticae [6]): 80%

CCOC(=O)OC1=C(c2c(Cl)cc(C)cc2CC)C(=O)NC12CCC(OC)CC2 (single isomer, unassigned) [Example I-c-4]
herbicidal effect in percent, Lolium (Lolium [1]): 100% | herbicidal effect in percent, Setaria (Setaria [2]): 100% | herbicidal effect in percent, Sinapis (Sinapis [3]): 80% | herbicidal effect in percent, Avena sativa (Avena sativa): 100% | herbicidal effect in percent, Stellaria (Stellaria): 80% | herbicidal effect in percent, Lolium (Lolium [4]): 80% | herbicidal effect in percent, Setaria (Setaria [5]): 90% | herbicidal effect in percent, Sinapis (Sinapis [7]): 70% | summer barley observed (%) (summer barley; 12.5 g of a.i./ha): 20% | summer barley observed (%) (summer barley; 25 g of a.i./ha): 70% | summer wheat observed (%) (summer wheat; 12.5 g of a.i./ha): 60%

CCc1cc(C)cc(Br)c1C1=C(OC(=O)C(C)C)C2(CCCCC2)NC1=O [Example I-b-3]
herbicidal effect in percent, Lolium (Lolium [1]): 90% | herbicidal effect in percent, Setaria (Setaria [2]): 100% | herbicidal effect in percent, Avena sativa (Avena sativa): 100% | summer wheat observed (%) (summer wheat; 12.5 g of a.i./ha): 10% | summer wheat observed (%) (summer wheat; 25 g of a.i./ha): 20% | summer wheat observed (%) (summer wheat; 50 g of a.i./ha): 75%

CCOC(=O)OC1=C(c2c(Br)cc(C)cc2CC)C(=O)NC12CCCCC2 [I-c-2]
herbicidal effect in percent, Lolium (Lolium [1]): 90% | herbicidal effect in percent, Setaria (Setaria [2]): 80% | herbicidal effect in percent, Avena sativa (Avena sativa): 90%

CCc1cc(C)cc(Br)c1C1=C(OC(=O)C(C)(C)C)C2(CCCCC2)NC1=O [I-b-4]
herbicidal effect in percent, Lolium (Lolium [1]): 90% | herbicidal effect in percent, Setaria (Setaria [2]): 90% | herbicidal effect in percent, Avena sativa (Avena sativa): 80%

CCc1cc(C)cc(Br)c1C1=C(O)C2(CCCCC2)NC1=O [I-a-2]
herbicidal effect in percent, Lolium (Lolium [1]): 90% | herbicidal effect in percent, Setaria (Setaria [2]): 100% | herbicidal effect in percent, Avena sativa (Avena sativa): 80%

CCc1cc(C)cc(Br)c1C1=C(OC(=O)COC)C2(CCCCC2)NC1=O [Example I-b-2]
herbicidal effect in percent, Lolium (Lolium [1]): 100% | herbicidal effect in percent, Setaria (Setaria [2]): 100% | herbicidal effect in percent, Avena sativa (Avena sativa): 90% | summer wheat observed (%) (summer wheat; 12.5 g of a.i./ha): 20% | summer wheat observed (%) (summer wheat; 25 g of a.i./ha): 70% | summer wheat observed (%) (summer wheat; 50 g of a.i./ha): 98%

CCc1cc(C)cc(Br)c1C1=C(OC(=O)COC)C2(CCC(OC)CC2)NC1=O (single isomer, unassigned) [Example I-b-5]
herbicidal effect in percent, Lolium (Lolium [1]): 100% | herbicidal effect in percent, Setaria (Setaria [2]): 100% | herbicidal effect in percent, Sinapis (Sinapis [3]): 70% | herbicidal effect in percent, Avena sativa (Avena sativa): 100% | herbicidal effect in percent, Lolium (Lolium [4]): 100% | herbicidal effect in percent, Setaria (Setaria [5]): 90% | herbicidal effect in percent, Sinapis (Sinapis [7]): 80% | Kill rate in % after 5d (Myzus persicae): 80% | summer barley observed (%) (summer barley; 12.5 g of a.i./ha): 35% | summer barley observed (%) (summer barley; 25 g of a.i./ha): 65% | summer barley observed (%) (summer barley; 50 g of a.i./ha): 98% | Kill rate in % after 5d (Tetranychus urticae [6]): 70%

CCc1cc(C)cc(Br)c1C1=C(O)C2(CCC(OC)CC2)NC1=O (single isomer, unassigned) [Example I-a-3]
Kill rate in % after 7d (Phaedon cochleariae): 100% | herbicidal effect in percent, Lolium (Lolium [1]): 100% | herbicidal effect in percent, Setaria (Setaria [2]): 100% | herbicidal effect in percent, Sinapis (Sinapis [3]): 80% | herbicidal effect in percent, Avena sativa (Avena sativa): 100% | herbicidal effect in percent, Lolium (Lolium [4]): 80% | herbicidal effect in percent, Setaria (Setaria [5]): 100% | herbicidal effect in percent, Amaranthus (Amaranthus): 80% | Kill rate in % after 5d (Myzus persicae): 100% | Kill rate in % after 7d (Tetranychus urticae [8]): 50% | summer barley observed (%) (summer barley; 25 g of a.i./ha): 20% | summer barley observed (%) (summer barley; 50 g of a.i./ha): 90% | summer barley observed (%) (summer barley; 100 g of a.i./ha): 95% | summer wheat observed (%) (summer wheat; 25 g of a.i./ha): 60% | Kill rate in % after 5d (Tetranychus urticae [6]): 90%
